Test results reported in patent publication US20240190880A1 (THE REGENTS OF THE UNIVERSITY OF MICHIGAN, priority 2021, published 2024).

Molecular target: T1, ER (Homo sapiens, UniProt P03372)
T1 construct: host or cells: T47D and MCF7 human breast cancer cells
T1 sequence (P03372 1-595): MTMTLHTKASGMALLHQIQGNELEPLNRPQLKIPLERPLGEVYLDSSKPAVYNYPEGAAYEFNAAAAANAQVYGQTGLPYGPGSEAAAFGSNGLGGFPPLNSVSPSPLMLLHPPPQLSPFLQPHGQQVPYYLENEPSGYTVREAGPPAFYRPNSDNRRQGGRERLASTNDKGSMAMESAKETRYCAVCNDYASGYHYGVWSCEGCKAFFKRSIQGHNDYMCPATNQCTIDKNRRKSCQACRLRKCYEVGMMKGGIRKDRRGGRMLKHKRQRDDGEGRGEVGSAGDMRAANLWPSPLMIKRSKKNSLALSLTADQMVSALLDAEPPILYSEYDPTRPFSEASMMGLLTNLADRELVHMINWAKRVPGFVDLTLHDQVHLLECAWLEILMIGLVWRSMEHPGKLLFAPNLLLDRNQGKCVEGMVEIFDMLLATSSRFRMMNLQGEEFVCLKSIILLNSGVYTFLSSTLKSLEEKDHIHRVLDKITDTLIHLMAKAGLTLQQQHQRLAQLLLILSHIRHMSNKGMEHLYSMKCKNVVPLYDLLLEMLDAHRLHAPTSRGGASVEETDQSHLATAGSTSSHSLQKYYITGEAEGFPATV
Experiment: ER degradation activity, in-cell western blot analysis in T47D cells
Type: cell-based
Details: 16 hours, Table A does not say which cell line (T47D or MCF7), read-out: Potency (DC50)
Outline: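 Human T47D cells (DMEM, 10% FBS) are dosed for 16 h with 0.5% DMSO final and probed with 680- and 800-dye secondary antibodies. Relative ER is calculated against vehicle and untreated wells.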

| DC50 [nM] | Structure (SMILES) |
| --- | --- |
| 10 to 100 | O=C1CCC(N2C(=O)c3cc4c(cc3C2=O)CN(CC(=O)N2CC3(CCN(c5ccc([C@@H]6c7ccc(O)cc7CC[C@@H]6c6ccccc6)c(F)c5)CC3)C2)C4)C(=O)N1 (mixture of isomers) [E 174, Rac-2-(2,6-dioxopiperidin-3-yl)-6-(2-(7-(3-fluoro-4-((1S,2S)-6-hydroxy-2-phenyl-1,2,3,4-tetrahydronaphthalen-1-yl)phenyl)-2,7-diazaspiro[3.5]nonan-2-yl)-2-oxoethyl)-6,7-dihydropyrrolo[3,4-f]isoindole-1,3(2H,5H)-dione] |
| > 100 | O=C1CCC(N2C(=O)c3cc4c(cc3C2=O)CN(CC(=O)N2CCC3(CC2)CCN(c2c(F)cc([C@@H]5c6ccc(O)cc6CC[C@@H]5c5ccccc5)cc2F)CC3)C4)C(=O)N1 (mixture of isomers) [E 175, Rac-6-(2-(9-(2,6-difluoro-4-((1R,2S)-6-hydroxy-2-phenyl-1,2,3,4-tetrahydronaphthalen-1-yl)phenyl)-3,9-diazaspiro[5.5]undecan-3-yl)-2-oxoethyl)-2-(2,6-dioxopiperidin-3-yl)-6,7-dihydropyrrolo[3,4-f]isoindole-1,3(2H,5H)-dione] |
| > 100 | O=C1CCC(N2C(=O)c3cc4c(cc3C2=O)CN(CC(=O)N2CCC3(CC2)CCN(c2cc(F)c([C@@H]5c6ccc(O)cc6CC[C@@H]5c5ccccc5)c(F)c2)CC3)C4)C(=O)N1 (mixture of isomers) [E 176, Rac-6-(2-(9-(3,5-difluoro-4-((1S,2S)-6-hydroxy-2-phenyl-1,2,3,4-tetrahydronaphthalen-1-yl)phenyl)-3,9-diazaspiro[5.5]undecan-3-yl)-2-oxoethyl)-2-(2,6-dioxopiperidin-3-yl)-6,7-dihydropyrrolo[3,4-f]isoindole-1,3(2H,5H)-dione] |
| 10 to 100 | O=C1CCC(N2C(=O)c3cc4c(cc3C2=O)CN(CC(=O)N2CCC3(CC2)CCN(c2ccc([C@@H]5c6ccc(O)cc6CC[C@@H]5C5CCCCC5)cc2)CC3)C4)C(=O)N1 (mixture of isomers) [E 177, Rac-6-(2-(9-(4-((1R,2R)-2-cyclohexyl-6-hydroxy-1,2,3,4-tetrahydronaphthalen-1-yl)phenyl)-3,9-diazaspiro[5.5]undecan-3-yl)-2-oxoethyl)-2-(2,6-dioxopiperidin-3-yl)-6,7-dihydropyrrolo[3,4-f]isoindole-1,3(2H,5H)-dione] |
| 10 to 100 | O=C1CCC(N2C(=O)c3cc4c(cc3C2=O)CN(CC(=O)N2CCC3(CC2)CCN(c2ccc([C@@H]5c6ccc(O)cc6CC[C@@H]5C5CCC(F)(F)CC5)cc2)CC3)C4)C(=O)N1 (mixture of isomers) [E 178, Rac-6-(2-(9-(4-((1R,2R)-2-(4,4-difluorocyclohexyl)-6-hydroxy-1,2,3,4-tetrahydronaphthalen-1-yl)phenyl)-3,9-diazaspiro[5.5]undecan-3-yl)-2-oxoethyl)-2-(2,6-dioxopiperidin-3-yl)-6,7-dihydropyrrolo[3,4-f]isoindole-1,3(2H,5H)-dione] |
| 10 to 100 | O=C1CCC(N2C(=O)c3cc4c(cc3C2=O)CN(CC(=O)N2CCC3(CC2)CCN(c2ccc([C@@H]5c6ccc(O)cc6CCC56CCCC6)cc2)CC3)C4)C(=O)N1 (mixture of isomers) [E 179, Rac-2-(2,6-dioxopiperidin-3-yl)-6-(2-(9-(4-((R)-6′-hydroxy-3′,4′-dihydro-1′H-spiro[cyclopentane-1,2′-naphthalen]-1′-yl)phenyl)-3,9-diazaspiro[5.5]undecan-3-yl)-2-oxoethyl)-6,7-dihydropyrrolo[3,4-f]isoindole-1,3(2H,5H)-dione] |
| 10 to 100 | O=C1CCC(N2C(=O)c3cc4c(cc3C2=O)CN(CC(=O)N2CCC3(CC2)CCN(c2ccc([C@@H]5c6ccc(B(O)O)cc6CC[C@@H]5c5ccccc5)cc2)CC3)C4)C(=O)N1 (mixture of isomers) [E 180, Rac-((5R,6S)-5-(4-(9-(2-(6-(2,6-dioxopiperidin-3-yl)-5,7-dioxo-3,5,6,7-tetrahydropyrrolo[3,4-f]isoindol-2(1H)-yl)acetyl)-3,9-diazaspiro[5.5]undecan-3-yl)phenyl)-6-phenyl-5,6,7,8-tetrahydronaphthalen-2-yl)boronic acid] |
| > 100 | O=C1CCC(N2C(=O)c3cc4c(cc3C2=O)CN(C(=O)CN2CCC3(CC2)CCN(c2ccc([C@@H]5c6ccc(B(O)O)cc6CC[C@@H]5c5ccccc5)cc2)CC3)C4)C(=O)N1 (mixture of isomers) [E 181, Rac-((5R,6S)-5-(4-(9-(2-(6-(2,6-dioxopiperidin-3-yl)-5,7-dioxo-3,5,6,7-tetrahydropyrrolo[3,4-f]isoindol-2(1H)-yl)-2-oxoethyl)-3,9-diazaspiro[5.5]undecan-3-yl)phenyl)-6-phenyl-5,6,7,8-tetrahydronaphthalen-2-yl)boronic acid] |
| > 100 | O=C1CCC(N2C(=O)c3cc4c(cc3C2=O)CN(CC(=O)N2CCC3(CC2)CCN(c2ccc([C@@H]5c6ccc(O)cc6CC[C@@H]5c5ccc(F)cc5)cn2)CC3)C4)C(=O)N1 (mixture of isomers) [E 185, Rac-2-(2,6-dioxopiperidin-3-yl)-6-(2-(9-(5-((1S,2S)-2-(4-fluorophenyl)-6-hydroxy-1,2,3,4-tetrahydronaphthalen-1-yl)pyridin-2-yl)-3,9-diazaspiro[5.5]undecan-3-yl)-2-oxoethyl)-6,7-dihydropyrrolo[3,4-f]isoindole-1,3(2H,5H)-dione] |
| 10 to 100 | O=C1CCC(N2C(=O)c3cc4c(cc3C2=O)CN(CCN2CCC3(CC2)CN(c2ccc([C@@H]5c6ccc(O)cc6CC[C@@H]5c5ccccc5)cc2)C3)C4)C(=O)N1 (mixture of isomers) [E 266, rac-2-(2,6-dioxopiperidin-3-yl)-6-(2-(2-(4-((1R,2S)-6-hydroxy-2-phenyl-1,2,3,4-tetrahydronaphthalen-1-yl)phenyl)-2,7-diazaspiro[3.5]nonan-7-yl)ethyl)-6,7-dihydropyrrolo[3,4-f]isoindole-1,3(2H,5H)-dione] |
| 10 to 100 | O=C1CCC(N2C(=O)c3cc4c(cc3C2=O)CN(CCN2CC3(CCN(c5ccc([C@@H]6c7ccc(O)cc7CC[C@@H]6c6ccccc6)cc5)CC3)C2)C4)C(=O)N1 (mixture of isomers) [E 267, rac-2-(2,6-dioxopiperidin-3-yl)-6-(2-(7-(4-((1R,2S)-6-hydroxy-2-phenyl-1,2,3,4-tetrahydronaphthalen-1-yl)phenyl)-2,7-diazaspiro[3.5]nonan-2-yl)ethyl)-6,7-dihydropyrrolo[3,4-f]isoindole-1,3(2H,5H)-dione] |
| 10 to 100 | O=C1CCC(N2C(=O)c3cc4c(cc3C2=O)CN(CCN2CCC3(CC2)CCN(c2ccc([C@@H]5c6ccc(O)cc6CC[C@@H]5c5ccccc5)cc2)CC3)C4)C(=O)N1 (mixture of isomers) [E 268, rac-2-(2,6-dioxopiperidin-3-yl)-6-(2-(9-(4-((1R,2S)-6-hydroxy-2-phenyl-1,2,3,4-tetrahydronaphthalen-1-yl)phenyl)-3,9-diazaspiro[5.5]undecan-3-yl)ethyl)-6,7-dihydropyrrolo[3,4-f]isoindole-1,3(2H,5H)-dione] |
| 10 to 100 | CN(C1CCN(c2ccc([C@@H]3c4ccc(O)cc4CC[C@@H]3c3ccccc3)cc2)CC1)N1CCC(C(=O)N2Cc3cc4c(cc3C2)C(=O)N(C2CCC(=O)NC2=O)C4=O)CC1 (mixture of isomers) [E 287, 2-(2,6-dioxopiperidin-3-yl)-6-(1-((1-(4-((1R,2S)-6-hydroxy-2-phenyl-1,2,3,4-tetrahydronaphthalen-1-yl)phenyl)piperidin-4-yl)(methyl)amino)piperidine-4-carbonyl)-6,7-dihydropyrrolo[3,4-f]isoindole-1,3(2H,5H)-dione] |
